Experimental data taken from ChEMBL document CHEMBL3046967, “Synthesis and Fungicidal Activities of 2-(-Methoxyiminobenzyl)-1-methylimidazole Derivatives” (2001).

Key:
Assay type in all cases: functional
Podosphaera fuliginea [1] = assay: Antifungal activity against Podosphaera fuliginea in cucumber at 125 ppm
[2] = test system: Pseudoperonospora cubensis; assay: Antifungal activity against Pseudoperonospora cubensis in cucumber at 500 ppm
Podosphaera fuliginea [3] = assay: Antifungal activity against Podosphaera fuliginea in cucumber at 2 ppm
Podosphaera fuliginea [4] = assay: Antifungal activity against Podosphaera fuliginea in cucumber at 7.8 ppm
[5] = test system: Pseudoperonospora cubensis; assay: Antifungal activity against Pseudoperonospora cubensis in cucumber at 7.8 ppm
Podosphaera fuliginea [6] = assay: Antifungal activity against Podosphaera fuliginea in cucumber at 31.3 ppm
[7] = test system: Pseudoperonospora cubensis; assay: Antifungal activity against Pseudoperonospora cubensis in cucumber at 2 ppm
Botrytis cinerea [8] = assay: Antifungal activity against Botryotinia fuckeliana in cucumber at 7.8 ppm
Botrytis cinerea [9] = assay: Antifungal activity against Botryotinia fuckeliana in cucumber at 500 ppm
[10] = test system: Pseudoperonospora cubensis; assay: Antifungal activity against Pseudoperonospora cubensis in cucumber at 125 ppm
[11] = test system: Pseudoperonospora cubensis; assay: Antifungal activity against Pseudoperonospora cubensis in cucumber at 31.3 ppm
Podosphaera fuliginea [12] = assay: Antifungal activity against Podosphaera fuliginea in cucumber at 500 ppm

## CO/N=C(\c1ccccc1/C=N/OC(C)c1ccccc1C(F)(F)F)c1nccn1C (stereo not drawn)
Podosphaera fuliginea [1]
  Activity: 90%
[2]
  Activity: <50%

## CO/N=C(\c1ccccc1/C=N/OC(C)c1cccc(C(F)(F)F)c1)c1nccn1C (stereo not drawn)
Podosphaera fuliginea [3]
  Activity: 90%
[2]
  Activity: 50%

## CO/N=C(\c1ccccc1/C=N/OC(C)c1ccc(Br)cc1)c1nccn1C (stereo not drawn)
Podosphaera fuliginea [4]
  Activity: 90%
[5]
  Activity: 50%

## CO/N=C(\c1ccccc1/C=N/OC(C)c1ccc(OC)cc1)c1nccn1C (stereo not drawn)
Podosphaera fuliginea [6]
  Activity: 90%
[2]
  Activity: <50%

## CO/N=C(\c1ccccc1/C=N/OC(C)c1ccc(OC(F)(F)F)cc1)c1nccn1C (stereo not drawn)
[7]
  Activity: 50%
Podosphaera fuliginea [3]
  Activity: 90%

## CO/N=C(\c1ccccc1/C=N/OC(C)c1ccc(Cl)cc1Cl)c1nccn1C (stereo not drawn)
Podosphaera fuliginea [6]
  Activity: 90%
[2]
  Activity: <50%

## CO/N=C(\c1ccccc1/C=N/OCc1ccc(Cl)cc1)c1nccn1C
Podosphaera fuliginea [4]
  Activity: 90%
[2]
  Activity: <50%

## CCC(O/N=C/c1ccccc1/C(=N\OC)c1nccn1C)c1ccc(Cl)c(Cl)c1 (stereo not drawn)
Podosphaera fuliginea [6]
  Activity: 90%
[5]
  Activity: 50%

## CO/N=C(\c1ccccc1COc1ccc(Cl)cc1C)c1nccn1C
Botrytis cinerea [8]
  Activity: 50%
Podosphaera fuliginea [3]
  Activity: 90%
[2]
  Activity: <50%

## CO/N=C(\c1ccccc1COc1ccc(Cl)cn1)c1nccn1C
Podosphaera fuliginea [6]
  Activity: 90%
[2]
  Activity: 50%
Botrytis cinerea [9]
  Activity: 50%

## CO/N=C(\c1ccccc1COc1ccc(C(F)(F)F)cn1)c1nccn1C
Podosphaera fuliginea [4]
  Activity: 90%
[2]
  Activity: 50%
Botrytis cinerea [9]
  Activity: 50%

## CO/N=C(\c1ccccc1COc1ncc(Cl)cc1Cl)c1nccn1C
Podosphaera fuliginea [4]
  Activity: 90%
Botrytis cinerea [9]
  Activity: 50%
[10]
  Activity: 50%

## CO/N=C(\c1ccccc1/C=N/N=C(/C)c1ccc(Cl)cc1)c1nccn1C
Podosphaera fuliginea [6]
  Activity: 90%
Botrytis cinerea [9]
  Activity: <50%
[11]
  Activity: 50%

## CO/N=C(\c1ccccc1/C=N/N=C(/C)c1ccc(C(F)(F)F)cc1)c1nccn1C
Podosphaera fuliginea [4]
  Activity: 90%
Botrytis cinerea [9]
  Activity: <50%
[5]
  Activity: 50%

## CO/N=C(\c1ccccc1/C=N/N=C(/C)c1ccc(Cl)c(Cl)c1)c1nccn1C
Podosphaera fuliginea [4]
  Activity: 90%
Botrytis cinerea [9]
  Activity: <50%
[5]
  Activity: 50%

## CO/N=C(\c1ccccc1/C=N/OC(C)c1ccc(Cl)cc1)c1nccn1C (stereo not drawn)
Podosphaera fuliginea [3]
  Activity: 90%
Botrytis cinerea [9]
  Activity: 50%
[5]
  Activity: 50%

## CO/N=C(\c1ccccc1/C=N/OC(C)c1ccc(C(F)(F)F)cc1)c1nccn1C (stereo not drawn)
[7]
  Activity: 50%
Podosphaera fuliginea [3]
  Activity: 90%
Botrytis cinerea [9]
  Activity: <50%

## CO/N=C(\c1ccccc1/C=N/OC(C)c1ccc(Cl)c(Cl)c1)c1nccn1C (stereo not drawn)
Podosphaera fuliginea [3]
  Activity: 90%
Botrytis cinerea [9]
  Activity: 50%
[5]
  Activity: 50%

## CO/N=C(\c1ccccc1/C=N/OC(C)c1ccccc1)c1nccn1C (stereo not drawn)
Podosphaera fuliginea [1]
  Activity: 90%
[2]
  Activity: <50%

## CO/N=C(\c1ccccc1/C=N/OC(C)c1ccccc1Cl)c1nccn1C (stereo not drawn)
Podosphaera fuliginea [1]
  Activity: 90%
[2]
  Activity: <50%

## CO/N=C(\c1ccccc1/C=N/OC(C)c1cccc(Cl)c1)c1nccn1C (stereo not drawn)
Podosphaera fuliginea [1]
  Activity: 90%
[2]
  Activity: <50%

## CO/N=C(\c1ccccc1/C=N/OC(C)c1ccccc1C)c1nccn1C (stereo not drawn)
[2]
  Activity: <50%
Podosphaera fuliginea [12]
  Activity: 90%

## CO/N=C(\c1ccccc1/C=N/OC(C)c1cccc(C)c1)c1nccn1C (stereo not drawn)
Podosphaera fuliginea [6]
  Activity: 90%
[2]
  Activity: <50%

## CO/N=C(\c1ccccc1/C=N/OC(C)c1ccc(C)cc1)c1nccn1C (stereo not drawn)
Podosphaera fuliginea [6]
  Activity: 90%
[2]
  Activity: <50%
